{
  "source": "patent US20130210779A1",
  "about": "“METHOD OF IDENTIFYING TRIPLE NEGATIVE BREAST CANCER” (The Washington University, priority 2012, published 2013)",
  "key": {"BRCA1-deficient cells": {"system": "BRCA1-deficient cells", "conditions": "cited from earlier work"}, "BOGA cells [1]": {"system": "BOGA cells", "test": "Western blot of protein levels in BOGA cells after treatment", "assay_type": "cell-based", "method": "MCF7 cells were a gift from J. Weber (Washington University, St. Louis, Mo.). Cells were maintained in DMEM (Cellgro) supplemented with 10% fetal bovine serum (Sigma-Aldrich), antibiotics, and antimycotics. Cells transduced with short hairpin RNAs (shRNAs) were maintained in selection media containing 0.5 mg/mL Geneticin G418 (Gibco) or 2 μg/mL puromycin (Invitrogen).\nCells were lysed in RIPA buffer (50 mM Tris-HCl pH 8.0, 150 mM NaCl, 1% NP-40, 0.5% sodium deoxycholate, 0.5% SDS) supplemented with PMSF, protease inhibitors, and DTT. Following sonication, 120 μg of total cell lysate was loaded into 4%-15% Tris-Gly gradient gels. Protein detection was carried out with the following antibodies: BRCA1 (sc-6954, Santa Cruz), 53BP1 (NB100-304, Novus Biologicals), cathepsin L (sc-6498, Santa Cruz), p107 (sc-318, Santa Cruz), RAD51 (sc-8349, Santa Cruz), RPA (NA18, Calbiochem), and β-Tubulin (T8328, Sigma-Aldrich).\n(§1) Aliquots of 1 nmol calcitriol were resuspended in 1 mL of bovine growth serum (BGS) and diluted in DMEM with antibiotics and antimycotics to a final concentration of 10% BGS. BGS was used as the vehicle in control media. Treatment was carried out for 24 hours unless indicated otherwise.\n(§2) Cells were incubated with the broad spectrum cathepsin inhibitor E-64 (E3132, Sigma-Aldrich) at a concentration of 10 μM. Water served as the vehicle in control media. Treatment was carried out for 24 hours unless indicated otherwise."}, "BOGA cells [2]": {"system": "BOGA cells", "test": "Analysis of aberrant chromosomes in metaphase spreads (genomic instability)", "assay_type": "cell-based", "method": "as §1, §2\nCells were treated with the PARPi EB-47 (E8405, Sigma-Aldrich) at a concentration of 1.2 μg/mL for 48 hours. PARPi was dissolved in water, which was used as vehicle control.\n(§3) For determining the extent of genomic instability, cells were irradiated with 2 Gy and analysis of metaphase spreads was performed 24 hours post-irradiation. For assaying formation of IRIF, cells were irradiated with 8 Gy and fixed and processed for immunofluorescence 1 hour, 3 hours, or 6 hours post-irradiation as indicated. For comet assays, cells were irradiated with 8 Gy.\nFollowing all treatments, cells were arrested in mitosis by treatment with colcemid for 4 hours and metaphase spreads prepared by hypotonic swelling in 0.56% KCl, followed by fixation in 3:1 methanol:acetic acid. Cell suspensions were dropped onto slides and stained for 25 minutes in Wright-Giemsa Stain (9380-32, Ricca Chemical Company) and then washed in water. Slides were allowed to dry and were mounted using Eukitt Mounting Reagent and analyzed on an Olympus BX51 light microscope."}, "BOGA cells [3]": {"system": "BOGA cells", "test": "Neutral comet assay, kinetics of DNA DSBs repair", "assay_type": "cell-based", "conditions": "vitamin D 10−7 M 24 h preirradiation, 8 Gy", "method": "as §3\nNeutral comet assays were performed using CometSlide assay kits (Trevigen). […] Cells were embedded in agarose, lysed, and subjected to neutral single cell gel electrophoresis. The agarose was dehydrated and cells were stained with ethidium bromide to visualize under a fluorescence microscope. Olive comet moment was determined using the program CometScore Version 1.5 (TriTek). Olive moment was calculated by multiplying the percentage of DNA in the tail by the displacement between the means of the head and tail distributions as described (Olive et al., 1990). A total of 25-30 comets were analyzed per sample in each experiment."}, "BOGA cells [4]": {"system": "BOGA cells", "test": "53BP1 IRIF formation by immunofluorescence", "assay_type": "cell-based", "conditions": "BOGA cells (sh BRCA1), vitamin D 10−7 M from 24 hours prior to 8 Gy, fixed 6 hours post-IR", "method": "(§4) Aliquots of 1 nmol calcitriol were resuspended in 1 mL of bovine growth serum (BGS) and diluted in DMEM with antibiotics and antimycotics to a final concentration of 10% BGS. BGS was used as the vehicle in control media. Treatment was carried out for 24 hours unless indicated otherwise. For determining the extent of genomic instability, cells were irradiated with 2 Gy and analysis of metaphase spreads was performed 24 hours post-irradiation. For assaying formation of IRIF, cells were irradiated with 8 Gy and fixed and processed for immunofluorescence 1 hour, 3 hours, or 6 hours post-irradiation as indicated. For comet assays, cells were irradiated with 8 Gy. Cells were plated on coverslips, irradiated with 8 Gy if indicated, and collected at the varying time intervals. Cells were fixed with 3.7% formaldehyde and 0.2% TritonX-100 in PBS for 10 minutes at RT, followed by 3 washes in PBS. After blocking in 1% BSA and 0.1% Triton X-100 in PBS for 1 hour at 37° C., cells were incubated with 53BP1 (NB100-304, Novus Biologicals) or RAD51 (sc-8349, Santa Cruz) antibodies for 1 hour at 37° C. Three washes in PBS were carried out followed by incubation for 1 hour at 37° C. with appropriate secondary antibodies. Final washes in PBS were carried out and cells were counterstained with DAPI and coverslips were mounted on slides using Vectashield (Vector Labs). […]"}, "BOGA cells [5]": {"system": "BOGA cells", "test": "RAD51 IRIF formation by immunofluorescence", "assay_type": "cell-based", "conditions": "vitamin D, 8 Gy", "method": "as §4"}, "[6]": {"conditions": "BRCA1-deficient (BOGA) cells, E64 10 μM"}},
  "data": [
    {"smiles": "CNCc1ccc(-c2[nH]c3cc(F)cc4c3c2CCNC4=O)cc1", "note": "[AG014699]", "values": [
      {"measurement": "Clonogenic survival of BRCA1-deficient cells compared to cells expressing BRCA1", "setting": "BRCA1-deficient cells", "value": "clear reduction"}
    ]},
    {"smiles": "CC(C)C[C@H](NC(=O)[C@H]1O[C@@H]1C(=O)O)C(=O)NCCCCN=C(N)N", "note": "[E64]", "values": [
      {"measurement": "53BP1 protein levels (western blot)", "setting": "BOGA cells [1]; [6]", "value": "increased levels"},
      {"measurement": "CTSL levels (western blot)", "setting": "BOGA cells [1]; [6]", "value": "without major changes"},
      {"measurement": "Genomic instability after IR", "setting": "BOGA cells [2]; E64 24 h prior to 2 Gy", "value": "marked increase"}
    ]},
    {"smiles": "Nc1ncnc2c1ncn2[C@@H]1O[C@H](C(=O)N2CCN(CC(=O)Nc3cccc4c3CNC4=O)CC2)[C@@H](O)[C@H]1O", "note": "[EB-47]", "values": [
      {"measurement": "Genomic instability (metaphases with chromosomal aberrations)", "setting": "BOGA cells [2]; PARPi EB-47 1.2 μg/mL 48 h alone", "value": "does not result in profound genomic instability"}
    ]},
    {"smiles": "O=C1CCC(=O)N1c1cc(Cc2n[nH]c(=O)c3ccccc23)ccc1F", "note": "[KU0058684]", "values": [
      {"measurement": "Clonogenic survival of BRCA1-deficient cells compared to cells expressing BRCA1", "setting": "BRCA1-deficient cells", "value": "clear reduction"}
    ]},
    {"smiles": "O=C(c1cc(Cc2n[nH]c(=O)c3ccccc23)ccc1F)N1CCCNCC1", "note": "[KU0058948]", "values": [
      {"measurement": "Clonogenic survival of BRCA1-deficient cells compared to cells expressing BRCA1", "setting": "BRCA1-deficient cells", "value": "clear reduction"}
    ]},
    {"smiles": "C=C1/C(=C\\C=C2/CCC[C@]3(C)[C@@H]([C@H](C)CCCC(C)(C)O)CC[C@@H]23)C[C@@H](O)C[C@@H]1O", "note": "[vitamin D, 1α,25-dihydroxyvitamin D3]", "values": [
      {"measurement": "Kinetics of DNA DSBs repair (fast phase), Olive comet moment", "setting": "BOGA cells [3]", "value": "rescues"},
      {"measurement": "53BP1 protein levels (western blot)", "setting": "BOGA cells [1]; BOGA cells, vitamin D 10−7 M", "value": "stabilizes"},
      {"measurement": "p107 levels (control for inhibition of CTSL activity)", "setting": "BOGA cells [1]; BOGA cells, vitamin D 10−7 M", "value": "stabilization"},
      {"measurement": "% cells with 53BP1 foci", "setting": "BOGA cells [4]", "value": 84, "unit": "%"},
      {"measurement": "% cells with 53BP1 foci", "setting": "BOGA cells [4]; listed as vit D", "value": 84, "unit": "%"},
      {"measurement": "% cells positive for RAD51 IRIF", "setting": "BOGA cells [5]; 1 hour post-IR", "value": 35, "unit": "%"},
      {"measurement": "Extent of RAD51 IRIF at later times post-irradiation", "setting": "BOGA cells [5]; 3 h post-IR", "value": "did not affect"},
      {"measurement": "Extent of chromosomal aberrations in response to PARPi", "setting": "BOGA cells [2]; vitamin D 10−7 M 24 h prior to and with PARPi EB-47 1.2 μg/mL 48 h", "value": "increase"},
      {"measurement": "Percentage of metaphases with aberrant chromosomes after IR", "setting": "BOGA cells [2]; vitamin D 24 h prior to 2 Gy, 24 h post-IR", "value": "significantly increased"},
      {"measurement": "Genomic instability (metaphases with chromosomal aberrations), single agent", "setting": "BOGA cells [2]; vitamin D alone, mock irradiation", "value": "modest increase"}
    ]}
  ]
}
